Legend:
[1] = test system: endotoxin-induced lung injury; conditions: infusion of the prostaglandin; cited from earlier work
trauma = conditions: reported experimentally; cited from earlier work
[2] = test system: beagles suffering from hemorrhagic shock; conditions: infusion; cited from earlier work
[3] = test system: patients suffering from ARDS; experiment: Prospective randomized double blind placebo controlled study of PGE1 infusion in ARDS patients (Example 1); assay type: in vivo, human; conditions: 30 days after discontinuing the infusion; i.v. 5 ng/kg/min increased to 30 ng/kg/min, for 7 days or until extubated; 21 patients
Protocol: An intravenous solution was prepared by mixing one 5 ml ampoule of Prostin VR Pediatric Sterile Solution containing 2.5 mg PGE1 active drug with one liter of D5W or Normal Saline. Dosages of this solution or of a control solution containing only vehicle but no PGE1 were administered to 41 patients suffering from ARDS in a prospective randomized double blind placebo controlled study. PGE1 or the control solution was started at a dose of 5 ng/kg/min and then increased 5 ng/kg/min every 30 minutes until a rate of 30 ng/kg/min was reached.
This dosage was continued for 7 days or until the patient was extubated, whichever came sooner. The survival rate 30 days after discontinuing the infusion was as follows: […]

patients with ARDS = experiment: Double blind randomized study of PGE1 versus placebo in ARDS patients; survival, and mortality by creatinine/bilirubin level (Example 2); assay type: in vivo, human; conditions: 30 ng/kg/min for 7 days; 17 out of 26 patients survived
Protocol: Fifty patients with ARDS were randomized to receive PGE1 (30 ng/kg/min for 7 days) or placebo (equivalent volumes of saline and time) in a double blind study. For entry, patients must have required mechanical ventilation with an inspired oxygen concentration of 40% or more and a positive end respiratory pressure of 5 em of water or more. Most of the patients (70%) were septic. 17 out of 26 patients who had received PGE1 survived (65% survival) while only 7 out of 24 patients who had received placebo survived (29% survival).
The relation between the bilirubin and creatinine levels and the mortality of the patients enrolled in this study is depicted in Table 2. […] Creatinine and bilirubin levels are indicative of kidney and liver function, respectively. The data thus indicate that PGE1 prevents severe kidney and liver damage, and greatly decreases the risk of death, for patients highly susceptible to kidney failure, liver failure, and/or death as a result of trauma, sepsis, shock, and similar catastrophic events.

[4] = test system: microvascular permeability; conditions: sheep; cited from earlier work
[5] = test system: patients with severe postoperative ARDS; conditions: cited from earlier work

In the case of `CCCCC[C@H](O)/C=C/[C@@H]1[C@H]2C/C(=C/CCCC(=O)O)O[C@H]2C[C@H]1O` [PGI2, prostacyclin], the “lung and systemic injury associated with endotoxin infusion” value [1] is listed as “decreased” and the “survival rate after trauma” value (trauma) is listed as “beneficial in increasing the survival rate”.
In the case of `CCCCC[C@H](O)/C=C/[C@H]1[C@H](O)CC(=O)[C@@H]1CCCCCCC(=O)O` [PGE1, Prostaglandin E1], the survival rate [2] is listed as “improved”, the “lung and systemic injury associated with endotoxin infusion” value [1] is listed as “decreased” and the “Survival Rate (%)” value [3] is listed as 71.4%. The survival (patients with ARDS) was 65%, the “increase of microvascular permeability” value [4] was “Reversal” and the “lung function of each patient” value ([5]; 5 patients with severe postoperative ARDS) was “improved”. The “patients died of associated problems, including vital organ failure” value ([5]; of 5 patients with severe postoperative ARDS) was “three”.

— patent EP0153858A2, “The therapeutic use of prostaglandins” (THE UPJOHN COMPANY, priority 1984, dated 1985)
